{
  "source": "PubChem BioAssay (NCI)",
  "assay_in_all_cases": "DTP human tumour cell line panel, 48 h",
  "key": {"PC-3 prostate": {"tested_on": "PC-3 prostate"}, "A549 NSCLC": {"tested_on": "A549 NSCLC"}, "NCI/ADR-RES ovarian": {"tested_on": "NCI/ADR-RES ovarian"}, "HOP-92 NSCLC": {"tested_on": "HOP-92 NSCLC"}, "U251 CNS": {"tested_on": "U251 CNS"}, "NCI-H226 lung": {"tested_on": "NCI-H226 lung"}, "SK-MEL-28 melanoma": {"tested_on": "SK-MEL-28 melanoma"}, "OVCAR-8 ovarian": {"tested_on": "OVCAR-8 ovarian"}, "HL-60(TB) leukemia": {"tested_on": "HL-60(TB) leukemia"}, "KM12 colon": {"tested_on": "KM12 colon"}, "SF-539 CNS": {"tested_on": "SF-539 CNS"}, "HCT-116 colon": {"tested_on": "HCT-116 colon"}, "HS 578T breast": {"tested_on": "HS 578T breast"}, "SF-295 CNS": {"tested_on": "SF-295 CNS"}, "NCI-H23 lung": {"tested_on": "NCI-H23 lung"}},
  "note": "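Protocol summary: plate cells (96-well), add compound at 5 concentrations, incubate 48 h, interpolate endpoints linearly. At the TGI there is no net growth.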",
  "data": [
    {"smiles": "Cc1csc2nc(-c3cc([N+](=O)[O-])c(Cl)cc3Cl)c(/C=N/N=C(N)N)n12", "values": [
      {"measurement": "TGI", "setting": "PC-3 prostate", "result": 38.9, "unit": "µM"},
      {"measurement": "TGI", "setting": "A549 NSCLC", "result": 40.9, "unit": "µM"},
      {"measurement": "TGI", "setting": "NCI/ADR-RES ovarian", "result": 32, "unit": "µM"},
      {"measurement": "TGI", "setting": "HOP-92 NSCLC", "result": 32.1, "unit": "µM"},
      {"measurement": "TGI", "setting": "U251 CNS", "result": 30.5, "unit": "µM"},
      {"measurement": "TGI", "setting": "NCI-H226 lung", "result": 34.6, "unit": "µM"},
      {"measurement": "TGI", "setting": "SK-MEL-28 melanoma", "result": 31.1, "unit": "µM"},
      {"measurement": "TGI", "setting": "OVCAR-8 ovarian", "result": 36.1, "unit": "µM"},
      {"measurement": "TGI", "setting": "HL-60(TB) leukemia", "result": 28.9, "unit": "µM"},
      {"measurement": "TGI", "setting": "KM12 colon", "result": 32.4, "unit": "µM"},
      {"measurement": "TGI", "setting": "SF-539 CNS", "result": 35.1, "unit": "µM"},
      {"measurement": "TGI", "setting": "HCT-116 colon", "result": 39.5, "unit": "µM"},
      {"measurement": "TGI", "setting": "HS 578T breast", "result": 32.7, "unit": "µM"},
      {"measurement": "TGI", "setting": "SF-295 CNS", "result": 38.8, "unit": "µM"},
      {"measurement": "TGI", "setting": "NCI-H23 lung", "result": 33, "unit": "µM"}
    ]}
  ]
}
